Experimental data taken from patent US20230278972A1, “SUBSTITUTED HALOALKYL SULFONANILIDE HERBICIDES” (FMC Corporation, priority 2020, published 2023).

How the values were obtained:
Type in all cases: in vivo
[1] = test system: Ryegrass, Italian (Italian ryegrass, Lolium multiflorum); assay: Test A preemergence, Ryegrass, Italian; details: Preemergence; for Plant response rating, Ryegrass, Italian: 0 to 100 scale (0 no effect, 100 complete control); for Ryegrass, Italian plant response rating: visual injury on 0 to 100 scale (0 no effect, 100 complete control), approximately 10 days
Method in brief: (§1)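 Test chemicals, formulated in a non-phytotoxic solvent mixture with surfactant, were sprayed postemergence on plants 2 to 10 cm tall at the one- to two-leaf stage. Preemergence treatment was a directed soil spray onto freshly seeded pots. Both used a loam soil and sand blend.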

[2] = test system: ragweed (common ragweed, Ambrosia artemisiifolia); assay: Test A preemergence, ragweed; details: Preemergence; for Plant response rating, Ragweed: 0 to 100 scale (0 no effect, 100 complete control); for Ragweed plant response rating: visual injury on 0 to 100 scale (0 no effect, 100 complete control), approximately 10 days
Method in brief: as §1

[3] = test system: pigweed (Amaranthus retroflexus); assay: Test A preemergence, pigweed; details: for Plant response rating, Pigweed: 0 to 100 scale (0 no effect, 100 complete control); for Pigweed plant response rating: visual injury on 0 to 100 scale (0 no effect, 100 complete control), approximately 10 days
Method in brief: (§2)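 Formulated with a surfactant in a non-phytotoxic solvent, compounds are applied to loam–sand pots, either to bare soil immediately after seeding (preemergence) or to seedlings of 2 to 10 cm bearing one to two leaves (postemergence).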

[4] = test system: Ryegrass, Italian (Italian ryegrass, Lolium multiflorum); assay: Test A postemergence, Ryegrass, Italian; details: Postemergence, 0 to 100 scale (0 no effect, 100 complete control); for Ryegrass, Italian plant response rating: visual injury vs untreated controls after approx. 10 days
Method in brief: as §1

kochia (Bassia scoparia) [5] = assay: Test A postemergence, kochia; details: Postemergence, 0 to 100 scale (0 no effect, 100 complete control); for Kochia plant response rating: visual injury vs untreated controls after approx. 10 days
Method in brief: as §1

[6] = test system: blackgrass (Alopecurus myosuroides); assay: Test A postemergence, blackgrass; details: Postemergence, 0 to 100 scale (0 no effect, 100 complete control); for Blackgrass plant response rating: visual injury vs untreated controls after approx. 10 days
Method in brief: as §1

[7] = test system: barnyardgrass (Echinochloa crus-galli); assay: Test A postemergence, barnyardgrass; details: Postemergence, 0 to 100 scale (0 no effect, 100 complete control); for Barnyardgrass plant response rating: visual injury vs untreated controls after approx. 10 days
Method in brief: as §2

kochia (Bassia scoparia) [8] = assay: Test A preemergence, kochia; details: Preemergence; for Plant response rating, Kochia: 0 to 100 scale (0 no effect, 100 complete control); for Kochia plant response rating: visual injury on 0 to 100 scale (0 no effect, 100 complete control), approximately 10 days
Method in brief: as §1

corn (Zea mays) = assay: Test A postemergence, corn; details: Postemergence, 0 to 100 scale (0 no effect, 100 complete control); for Corn plant response rating: visual injury vs untreated controls after approx. 10 days
Method in brief: as §1

[9] = test system: barnyardgrass (Echinochloa crus-galli); assay: Test A preemergence, barnyardgrass; details: Preemergence; for Plant response rating, Barnyardgrass: 0 to 100 scale (0 no effect, 100 complete control)
Method in brief: as §1

[10] = test system: Foxtail, Giant (giant foxtail, Setaria faberi); assay: Test A preemergence, Foxtail, Giant; details: Preemergence; for Plant response rating, Foxtail, Giant: 0 to 100 scale (0 no effect, 100 complete control); for Foxtail, Giant plant response rating: visual injury on 0 to 100 scale (0 no effect, 100 complete control), approximately 10 days
Method in brief: as §1

[11] = test system: wheat (Triticum aestivum); assay: Test A postemergence, wheat; details: Postemergence, 0 to 100 scale (0 no effect, 100 complete control); for Wheat plant response rating: visual injury vs untreated controls after approx. 10 days
Method in brief: as §2

[12] = test system: galium (catchweed bedstraw, Galium aparine); assay: Test A postemergence, galium; details: Postemergence, 0 to 100 scale (0 no effect, 100 complete control); for Galium plant response rating: visual injury vs untreated controls after approx. 10 days
Method in brief: as §2

[13] = test system: ragweed (common ragweed, Ambrosia artemisiifolia); assay: Test A postemergence, ragweed; details: Postemergence, 0 to 100 scale (0 no effect, 100 complete control); for Ragweed plant response rating: visual injury vs untreated controls after approx. 10 days
Method in brief: as §1

[14] = test system: Foxtail, Giant (giant foxtail, Setaria faberi); assay: Test A postemergence, Foxtail, Giant; details: Postemergence, 0 to 100 scale (0 no effect, 100 complete control); for Foxtail, Giant plant response rating: visual injury vs untreated controls after approx. 10 days
Method in brief: as §1

[15] = test system: pigweed (Amaranthus retroflexus); assay: Test A postemergence, pigweed; details: Postemergence, 0 to 100 scale (0 no effect, 100 complete control); for Pigweed plant response rating: visual injury vs untreated controls after approx. 10 days
Method in brief: as §1

[16] = 125 g ai/ha, visual injury, approx. 10 days
[17] = 125 g ai/ha, visual injury approx. 10 days
[18] = 500 g ai/ha, visual injury, approx. 10 days

## Cc1cc(C)c(N(S(=O)(=O)C(F)(F)F)S(=O)(=O)C(F)(F)F)cc1C(=O)N1CCC(F)(F)CC1 [Compound 210]
[1]; [16]
  Plant response rating, Ryegrass, Italian: 50
[1]; 500 g ai/ha
  Plant response rating, Ryegrass, Italian: 100
[2]; [16]
  Plant response rating, Ragweed: 80
[2]; 500 g ai/ha
  Plant response rating, Ragweed: 90
[3]; [16]
  Plant response rating, Pigweed: 100
[3]; 500 g ai/ha
  Plant response rating, Pigweed: 100
[4]; 125 g ai/ha
  Plant response rating, Ryegrass, Italian: 20
[4]; 500 g ai/ha
  Ryegrass, Italian plant response rating: 40
Kochia (Bassia scoparia) [5]; 125 g ai/ha
  Plant response rating, Kochia: 50
Kochia (Bassia scoparia) [5]; 500 g ai/ha
  Kochia plant response rating: 90
[6]; 125 g ai/ha
  Plant response rating, Blackgrass: 0
[6]; 500 g ai/ha
  Blackgrass plant response rating: 0
[7]; 125 g ai/ha
  Plant response rating, Barnyardgrass: 20
[7]; 500 g ai/ha
  Barnyardgrass plant response rating: 90
Kochia (Bassia scoparia) [8]; [16]
  Plant response rating, Kochia: 30
Kochia (Bassia scoparia) [8]; 500 g ai/ha
  Plant response rating, Kochia: 90
Corn (Zea mays); 125 g ai/ha
  Plant response rating, Corn: 10
Corn (Zea mays); 500 g ai/ha
  Corn plant response rating: 40
[9]; [16]
  Plant response rating, Barnyardgrass: 90
[9]; 500 g ai/ha
  Plant response rating, Barnyardgrass: 100
[10]; [16]
  Plant response rating, Foxtail, Giant: 90
[10]; 500 g ai/ha
  Plant response rating, Foxtail, Giant: 100
[11]; 125 g ai/ha
  Plant response rating, Wheat: 0
[11]; 500 g ai/ha
  Wheat plant response rating: 60
[12]; 125 g ai/ha
  Plant response rating, Galium: 80
[12]; 500 g ai/ha
  Galium plant response rating: 90
[13]; 125 g ai/ha
  Plant response rating, Ragweed: 80
[13]; 500 g ai/ha
  Ragweed plant response rating: 90
[14]; 125 g ai/ha
  Plant response rating, Foxtail, Giant: 0
[14]; 500 g ai/ha
  Foxtail, Giant plant response rating: 30
[15]; 125 g ai/ha
  Plant response rating, Pigweed: 60
[15]; 500 g ai/ha
  Pigweed plant response rating: 100

## Cc1cc(F)c(C(=O)N2CCOCC2)cc1N(S(=O)(=O)C(F)(F)F)S(=O)(=O)C(F)(F)F [Compound 237]
[1]; [16]
  Plant response rating, Ryegrass, Italian: 20
[1]; 500 g ai/ha
  Ryegrass, Italian plant response rating: 50
[2]; [16]
  Plant response rating, Ragweed: 30
[2]; 500 g ai/ha
  Ragweed plant response rating: 80
[3]; [16]
  Plant response rating, Pigweed: 80
[3]; 500 g ai/ha
  Pigweed plant response rating: 100
[4]; 125 g ai/ha
  Plant response rating, Ryegrass, Italian: 40
[4]; 500 g ai/ha
  Ryegrass, Italian plant response rating: 40
Kochia (Bassia scoparia) [5]; 125 g ai/ha
  Plant response rating, Kochia: 70
Kochia (Bassia scoparia) [5]; 500 g ai/ha
  Kochia plant response rating: 90
[6]; 125 g ai/ha
  Plant response rating, Blackgrass: 0
[6]; 500 g ai/ha
  Blackgrass plant response rating: 0
[7]; 125 g ai/ha
  Plant response rating, Barnyardgrass: 20
[7]; 500 g ai/ha
  Barnyardgrass plant response rating: 40
Kochia (Bassia scoparia) [8]; [16]
  Plant response rating, Kochia: 90
Kochia (Bassia scoparia) [8]; 500 g ai/ha
  Kochia plant response rating: 90
Corn (Zea mays); 125 g ai/ha
  Plant response rating, Corn: 0
Corn (Zea mays); 500 g ai/ha
  Corn plant response rating: 20
[9]; [16]
  Plant response rating, Barnyardgrass: 40
[9]; 500 g ai/ha
  Plant response rating, Barnyardgrass: 30
[10]; [16]
  Plant response rating, Foxtail, Giant: 20
[10]; 500 g ai/ha
  Foxtail, Giant plant response rating: 40
[11]; 125 g ai/ha
  Plant response rating, Wheat: 0
[11]; 500 g ai/ha
  Wheat plant response rating: 0
[12]; 125 g ai/ha
  Plant response rating, Galium: 0
[12]; 500 g ai/ha
  Galium plant response rating: 50
[13]; 125 g ai/ha
  Plant response rating, Ragweed: 50
[13]; 500 g ai/ha
  Ragweed plant response rating: 80
[14]; 125 g ai/ha
  Plant response rating, Foxtail, Giant: 20
[14]; 500 g ai/ha
  Foxtail, Giant plant response rating: 40
[15]; 125 g ai/ha
  Plant response rating, Pigweed: 30
[15]; 500 g ai/ha
  Pigweed plant response rating: 60

## Cc1cc(C)c(-c2cc(C(C)C)nn(C)c2=O)cc1NS(=O)(=O)C(F)(F)F [Compound 41]
[1]; 125 g ai/ha
  Ryegrass, Italian plant response rating: 60
[1]; 500 g ai/ha
  Plant response rating, Ryegrass, Italian: 80
[2]; 125 g ai/ha
  Ragweed plant response rating: 30
[2]; 500 g ai/ha
  Plant response rating, Ragweed: 80
[3]; 125 g ai/ha
  Pigweed plant response rating: 0
[3]; 500 g ai/ha
  Plant response rating, Pigweed: 0
[4]; [17]
  Plant response rating, Ryegrass, Italian: 60
[4]; [18]
  Plant response rating, Ryegrass, Italian: 60
Kochia (Bassia scoparia) [5]; [17]
  Plant response rating, Kochia: 0
Kochia (Bassia scoparia) [5]; [18]
  Plant response rating, Kochia: 0
[6]; [17]
  Plant response rating, Blackgrass: 0
[6]; [18]
  Plant response rating, Blackgrass: 40
[7]; [17]
  Plant response rating, Barnyardgrass: 0
[7]; [18]
  Plant response rating, Barnyardgrass: 80
Kochia (Bassia scoparia) [8]; 125 g ai/ha
  Kochia plant response rating: 0
Kochia (Bassia scoparia) [8]; 500 g ai/ha
  Plant response rating, Kochia: 0
Corn (Zea mays); [17]
  Plant response rating, Corn: 0
Corn (Zea mays); [18]
  Plant response rating, Corn: 0
[9]; 125 g ai/ha, visual injury on 0 to 100 scale (0 no effect, 100 complete control), approximately 10 days
  Barnyardgrass plant response rating: 50
[9]; 500 g ai/ha
  Plant response rating, Barnyardgrass: 90
[10]; 125 g ai/ha
  Foxtail, Giant plant response rating: 10
[10]; 500 g ai/ha
  Plant response rating, Foxtail, Giant: 80
[11]; [17]
  Plant response rating, Wheat: 50
[11]; [18]
  Plant response rating, Wheat: 60
[12]; [17]
  Plant response rating, Galium: 10
[12]; [18]
  Plant response rating, Galium: 30
[13]; [17]
  Plant response rating, Ragweed: 40
[13]; [18]
  Plant response rating, Ragweed: 70
[14]; [17]
  Plant response rating, Foxtail, Giant: 0
[14]; [18]
  Plant response rating, Foxtail, Giant: 30
[15]; [17]
  Plant response rating, Pigweed: 0
[15]; [18]
  Plant response rating, Pigweed: 0
